The NIST ThermoML archive (doi:10.1016/j.jct.2016.10.024)
Numbers after ± are expanded uncertainties.

Assay: mn = molality of the nth substance listed, in mol/kg
Conditions: 75 kPa, Liquid, Buoyancy - hydrostatic balance with magnetic suspension - one sinker

CCCC(N)=O [butanamide] + O
Conditions	mass density [kg/m3]
275.66 K, m1 = 0.1003	1000.06 ± 0.32
275.66 K, m1 = 0.1971	1000.2 ± 0.32
275.66 K, m1 = 0.301	1000.37 ± 0.32
275.66 K, m1 = 0.4013	1000.56 ± 0.32
275.66 K, m1 = 0.4955	1000.75 ± 0.32
275.66 K, m1 = 0.6013	1000.97 ± 0.32
275.66 K, m1 = 0.695	1001.2 ± 0.33
275.66 K, m1 = 0.8012	1001.46 ± 0.33
276.14 K, m1 = 0.1021	1000.06 ± 0.32
276.14 K, m1 = 0.1961	1000.2 ± 0.32
276.14 K, m1 = 0.2967	1000.37 ± 0.32
276.14 K, m1 = 0.4955	1000.75 ± 0.32
276.14 K, m1 = 0.6013	1000.96 ± 0.32
276.14 K, m1 = 0.6982	1001.18 ± 0.33
276.14 K, m1 = 0.8012	1001.42 ± 0.33
276.14 K, m1 = 0.9855	1001.87 ± 0.33
276.61 K, m1 = 0.1009	1000.05 ± 0.32
276.61 K, m1 = 0.1973	1000.18 ± 0.32
276.61 K, m1 = 0.2967	1000.33 ± 0.32
276.61 K, m1 = 0.4013	1000.51 ± 0.32
276.61 K, m1 = 0.5977	1000.89 ± 0.32
276.61 K, m1 = 0.7003	1001.11 ± 0.33
276.61 K, m1 = 0.8012	1001.35 ± 0.33
276.61 K, m1 = 0.9976	1001.83 ± 0.33
277.15 K, m1 = 0.1021	1000.09 ± 0.32
277.15 K, m1 = 0.1961	1000.21 ± 0.32
277.15 K, m1 = 0.2967	1000.35 ± 0.32
277.15 K, m1 = 0.4955	1000.69 ± 0.32
277.15 K, m1 = 0.6013	1000.9 ± 0.32
277.15 K, m1 = 0.6982	1001.13 ± 0.33
277.15 K, m1 = 0.8012	1001.4 ± 0.33
277.15 K, m1 = 0.9855	1001.94 ± 0.33
277.61 K, m1 = 0.1009	1000.08 ± 0.32
277.61 K, m1 = 0.1973	1000.21 ± 0.32
277.61 K, m1 = 0.2967	1000.36 ± 0.32
277.61 K, m1 = 0.4013	1000.53 ± 0.32
277.61 K, m1 = 0.5977	1000.89 ± 0.32
277.61 K, m1 = 0.7003	1001.1 ± 0.33
277.61 K, m1 = 0.8024	1001.32 ± 0.33
277.61 K, m1 = 0.9976	1001.77 ± 0.33
278.12 K, m1 = 0.1076	1000.07 ± 0.32
278.12 K, m1 = 0.1971	1000.19 ± 0.32
278.12 K, m1 = 0.3283	1000.38 ± 0.32
278.12 K, m1 = 0.4191	1000.51 ± 0.32
278.12 K, m1 = 0.5074	1000.65 ± 0.32
278.12 K, m1 = 0.6233	1000.85 ± 0.32
278.12 K, m1 = 0.7379	1001.04 ± 0.33
278.12 K, m1 = 0.8761	1001.28 ± 0.33
278.68 K, m1 = 0.1003	1000.05 ± 0.32
278.68 K, m1 = 0.1971	1000.17 ± 0.32
278.68 K, m1 = 0.301	1000.31 ± 0.32
278.68 K, m1 = 0.4013	1000.46 ± 0.32
278.68 K, m1 = 0.4955	1000.62 ± 0.32
278.68 K, m1 = 0.6013	1000.81 ± 0.32
278.68 K, m1 = 0.695	1001 ± 0.33
278.68 K, m1 = 0.8012	1001.23 ± 0.33

CC(N)=O [ethanamide] + O
Conditions	mass density [kg/m3]
275.66 K, m1 = 0.102	1000.47 ± 0.32
275.66 K, m1 = 0.2015	1000.96 ± 0.32
275.66 K, m1 = 0.2995	1001.42 ± 0.32
275.66 K, m1 = 0.4032	1001.9 ± 0.32
275.66 K, m1 = 0.4848	1002.29 ± 0.32
275.66 K, m1 = 0.5945	1002.81 ± 0.32
275.66 K, m1 = 0.6875	1003.24 ± 0.32
275.66 K, m1 = 0.7747	1003.64 ± 0.32
276.14 K, m1 = 0.09682	1000.43 ± 0.32
276.14 K, m1 = 0.2023	1000.93 ± 0.32
276.14 K, m1 = 0.3049	1001.42 ± 0.32
276.14 K, m1 = 0.4077	1001.91 ± 0.32
276.14 K, m1 = 0.5003	1002.35 ± 0.32
276.14 K, m1 = 0.6016	1002.82 ± 0.32
276.14 K, m1 = 0.7037	1003.3 ± 0.32
276.14 K, m1 = 0.8092	1003.79 ± 0.32
276.61 K, m1 = 0.1016	1000.37 ± 0.32
276.61 K, m1 = 0.1972	1000.9 ± 0.32
276.61 K, m1 = 0.299	1001.39 ± 0.32
276.61 K, m1 = 0.4078	1001.9 ± 0.32
276.61 K, m1 = 0.4957	1002.32 ± 0.32
276.61 K, m1 = 0.6048	1002.83 ± 0.32
276.61 K, m1 = 0.6858	1003.21 ± 0.32
276.61 K, m1 = 0.8092	1003.78 ± 0.32
277.15 K, m1 = 0.09682	1000.43 ± 0.32
277.15 K, m1 = 0.2023	1000.93 ± 0.32
277.15 K, m1 = 0.3049	1001.41 ± 0.32
277.15 K, m1 = 0.4077	1001.88 ± 0.32
277.15 K, m1 = 0.5003	1002.32 ± 0.32
277.15 K, m1 = 0.6016	1002.8 ± 0.32
277.15 K, m1 = 0.7037	1003.28 ± 0.32
277.15 K, m1 = 0.8092	1003.77 ± 0.32
277.61 K, m1 = 0.1016	1000.45 ± 0.32
277.61 K, m1 = 0.1972	1000.91 ± 0.32
277.61 K, m1 = 0.299	1001.38 ± 0.32
277.61 K, m1 = 0.4078	1001.89 ± 0.32
277.61 K, m1 = 0.4957	1002.29 ± 0.32
277.61 K, m1 = 0.6048	1002.79 ± 0.32
277.61 K, m1 = 0.6858	1003.16 ± 0.32
277.61 K, m1 = 0.8092	1003.73 ± 0.32
278.12 K, m1 = 0.1016	1000.43 ± 0.32
278.12 K, m1 = 0.1972	1000.88 ± 0.32
278.12 K, m1 = 0.299	1001.35 ± 0.32
278.12 K, m1 = 0.4078	1001.85 ± 0.32
278.12 K, m1 = 0.4957	1002.27 ± 0.32
278.12 K, m1 = 0.6048	1002.77 ± 0.32
278.12 K, m1 = 0.6858	1003.15 ± 0.32
278.12 K, m1 = 0.8092	1003.73 ± 0.32
278.68 K, m1 = 0.102	1000.43 ± 0.32
278.68 K, m1 = 0.2015	1000.9 ± 0.32
278.68 K, m1 = 0.2995	1001.36 ± 0.32
278.68 K, m1 = 0.4032	1001.83 ± 0.32
278.68 K, m1 = 0.4848	1002.21 ± 0.32
278.68 K, m1 = 0.5945	1002.7 ± 0.32
278.68 K, m1 = 0.6875	1003.12 ± 0.32
278.68 K, m1 = 0.7747	1003.51 ± 0.32

CCC(N)=O [propanamide] + O
Conditions	mass density [kg/m3]
275.66 K, m1 = 0.09705	1000.26 ± 0.32
275.66 K, m1 = 0.18	1000.53 ± 0.32
275.66 K, m1 = 0.2822	1000.89 ± 0.32
275.66 K, m1 = 0.3869	1001.24 ± 0.32
275.66 K, m1 = 0.4939	1001.62 ± 0.33
275.66 K, m1 = 0.5946	1002 ± 0.33
275.66 K, m1 = 0.702	1002.4 ± 0.33
275.66 K, m1 = 0.8002	1002.77 ± 0.33
276.14 K, m1 = 0.1006	1000.29 ± 0.32
276.14 K, m1 = 0.1957	1000.6 ± 0.32
276.14 K, m1 = 0.2937	1000.93 ± 0.32
276.14 K, m1 = 0.3933	1001.26 ± 0.32
276.14 K, m1 = 0.4953	1001.62 ± 0.33
276.14 K, m1 = 0.59	1001.96 ± 0.33
276.14 K, m1 = 0.7073	1002.39 ± 0.33
276.14 K, m1 = 0.799	1002.72 ± 0.33
276.61 K, m1 = 0.09735	1000.27 ± 0.32
276.61 K, m1 = 0.2018	1000.61 ± 0.32
276.61 K, m1 = 0.3001	1000.94 ± 0.32
276.61 K, m1 = 0.3875	1001.23 ± 0.32
276.61 K, m1 = 0.4999	1001.62 ± 0.33
276.61 K, m1 = 0.5929	1001.94 ± 0.33
276.61 K, m1 = 0.702	1002.32 ± 0.33
276.61 K, m1 = 0.7924	1002.63 ± 0.33
277.15 K, m1 = 0.1006	1000.29 ± 0.32
277.15 K, m1 = 0.1957	1000.61 ± 0.32
277.15 K, m1 = 0.2937	1000.93 ± 0.32
277.15 K, m1 = 0.3933	1001.27 ± 0.32
277.15 K, m1 = 0.4953	1001.61 ± 0.33
277.15 K, m1 = 0.59	1001.93 ± 0.33
277.15 K, m1 = 0.7073	1002.35 ± 0.33
277.15 K, m1 = 0.799	1002.67 ± 0.33
277.61 K, m1 = 0.09735	1000.28 ± 0.32
277.61 K, m1 = 0.2018	1000.61 ± 0.32
277.61 K, m1 = 0.3001	1000.92 ± 0.32
277.61 K, m1 = 0.3875	1001.21 ± 0.32
277.61 K, m1 = 0.4999	1001.59 ± 0.33
277.61 K, m1 = 0.5929	1001.9 ± 0.33
277.61 K, m1 = 0.694	1002.23 ± 0.33
277.61 K, m1 = 0.8027	1002.59 ± 0.33
278.12 K, m1 = 0.09735	1000.28 ± 0.32
278.12 K, m1 = 0.2018	1000.62 ± 0.32
278.12 K, m1 = 0.297	1000.92 ± 0.32
278.12 K, m1 = 0.4495	1001.43 ± 0.32
278.12 K, m1 = 0.4911	1001.58 ± 0.33
278.12 K, m1 = 0.5697	1001.85 ± 0.33
278.12 K, m1 = 0.7087	1002.34 ± 0.33
278.12 K, m1 = 0.8713	1002.91 ± 0.33
278.68 K, m1 = 0.09705	1000.26 ± 0.32
278.68 K, m1 = 0.18	1000.51 ± 0.32
278.68 K, m1 = 0.2822	1000.84 ± 0.32
278.68 K, m1 = 0.3869	1001.18 ± 0.32
278.68 K, m1 = 0.4939	1001.53 ± 0.33
278.68 K, m1 = 0.5946	1001.87 ± 0.33
278.68 K, m1 = 0.702	1002.24 ± 0.33
278.68 K, m1 = 0.8002	1002.58 ± 0.33
